Experiment [1] deals with T1, BRD4(BD1+BD2) protein (Homo sapiens, UniProt O60885).
T1 construct: 5 μL of BRD4(BD1+BD2) protein solution prepared to 3.6 ng/μL; purchased BPS Bioscience Inc. 32612
The experiment can be described thus: BRD4 binding inhibition assay (TR-FRET). Particulars: BRD4(BD1+BD2) TR-FRET Assay Kit, reaction 2 hours at room temperature; read-out: IC50 (concentration necessary for 50% inhibition of BRD4 binding activity). As for the experimental part: This assay measures binding inhibition activity of the test substance on the bromodomain of BRD4 protein.
BRD4 binding inhibition activity assay was carried out using a BRD4(BD1+BD2)TR-FRET Assay Kit (BPS Bioscience Inc. Catalog #32612), according to the attached instructions. In a flat-bottom 384-well white plate (Greiner 781080) there was added 8 μL of Tb-labeled donor/dye-labeled acceptor solution diluted 160-fold with 1×BRD TR-FRET Assay Buffer1, with 5 μL of BET Bromodomain Ligand diluted 40-fold with 1×BRD TR-FRET Assay Buffer1 in the test substance measuring wells and the Positive Control wells, and 5 μL of Non-acetylated Ligand1 diluted 40-fold with 1×BRD TR-FRET Assay Buffer1 in the Negative Control wells. After adding 2 μL of test substance diluted with 1×BRD TR-FRET Assay Buffer1 to the test substance measuring wells, and 2 μL of Dimethyl Sulfoxide solution diluted 100-fold with 1×BRD TR-FRET Assay Buffer1 to the Positive Control wells and Negative Control wells, 5 μL of BRD4(BD1+BD2) protein solution prepared to 3.6 ng/μL with 1×BRD TR-FRET Assay Buffer1 was added and reaction was conducted for 2 hours at room temperature. The fluorescence intensity was measured at 620 nm and 665 nm with irradiation of 340 nm excitation light into each well, using an Envision™ (Perkin-Elmer). The ratio of fluorescence intensity at […] with respect to fluorescence intensity at 620 nm for each well was recorded as the TR-FRET ratio, and the TR-FRET ratio in the presence of the test substance was calculated with the Positive Control well value as 100%, subtracting the Negative Control well value. The concentration of test substance necessary for 50% inhibition of BRD4 binding activity (IC50) was calculated from the TR-FRET ratio, and shown in Table 1.
A general note: In TR-FRET formats the signal depends on donor and acceptor labels being close together.

Experiment [2] relates to AsPC-1/Cas9 cell line (human pancreatic cancer cell line AsPC-1). The experiment can be described thus: AsPC-1/Cas9 growth inhibition assay. The format is cell-based. Particulars: 5 days culture, CellTiter Glo 2.0, read-out: IC50 (Absolute IC50, 50% inhibition of cell growth). As for the experimental part:
Human pancreatic cancer cell line AsPC-1 (ATCC Number CRL1682) was infected with Edit-R Lentiviral hCMV-Blast-Cas9 Nuclease Particle (Dharmacon, VCAS10124) in the presence of 8 μg/ml of Hexadimethrine bromide (Sigma, H9268), and after 24 hours it was exposed to 10 μg/ml of Blastcidin S (Thermo, A11139) to remove the uninfected cells, thereby establishing an AsPC-1/Cas9 cell line. The cells were maintenance cultured in a 5% CO2 incubator (37° C.) using RPMI-1640 (FujiFilm-Wako Pure Chemical Industries) containing 10% fetal bovine serum (FBS: SIGMA 173012) and penicillin/streptomycin (FujiFilm-Wako Pure Chemical Industries) (hereunder referred to simply as “culture medium”). After adding 25 μL of AsPC-1/Cas9 cell suspension prepared to 3.2×10^4 cells/mL using culture medium into each well of a 384-well plate (Greiner 781091), the cells were cultured overnight in a 5% CO2 incubator (37° C.). On the following day, 25 μL of the test substance diluted with culture medium was added to each well, and culturing was continued for 5 days in a 5% CO2 incubator (37° C.). Next, 25 μL of CellTiter Glo™ 2.0 (Promega) was added to each well, and the plate contents were mixed for 5 minutes using a plate mixer. The plate was stationed for 10 minutes at room temperature while shielded from light, and then the luminous intensity was measured with an ENVISION™ (Perkin-Elmer). The luminescence value of the wells with addition of test substance was determined as a relative value, with 100% as the luminescence value of the wells with cells but without addition of the test substance and 0% as the luminescence value of the wells without cells. A plot of test substance concentration against luminescence value % approximated a 4-parameter logistic curve, and the test substance concentration necessary for 50% inhibition of cell growth (Absolute IC50) was calculated, and is shown in Table 10. In Table 10, the antibodies listed as “CEACAM6_#84.7” are the anti-CEACAM6 antibody of Example 301-1, the antibodies listed as “003” are the anti-folate receptor α antibody of Example 301-2, and the antibodies listed as “345A12” are the anti-mesothelin antibody of Example 301-3.
According the same method as in the AsPC-1/Cas9 growth inhibition assay described in Example 313 above, the test substance concentration necessary for 50% inhibition of cell growth (Absolute IC50) in the ADC described in Example 318 was calculated and is shown in Table 12.
Background: ATP-based viability assays read luminescence as a measure of living cells.

The test system of experiment [3] is AsPC-1/Cas9 cell line. The experiment can be described thus: AsPC-1/Cas9 growth inhibition assay. The format is cell-based, human. Conditions: Homo sapiens, ASPC1, 120 h, AsPC-1/Cas9 cells, 5 days culture, CellTiter Glo 2.0; read-out: Absolute IC50—Day 5 (nM) AsPC-1 Cas9. The method, boiled down: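 AsPC-1 pancreatic cancer cells stably expressing Cas9, seeded overnight, then exposed to compound for 5 days at 37° C. Viability read by CellTiter-Glo luminescence against untreated cells (100%) and cell-free wells (0%). Absolute IC50 from a 4-parameter logistic fit.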

The subject of experiment [4] is Human pancreatic cancer cell line HPAF-II. The experiment can be described thus: HPAF-II growth inhibition assay (Example 317). The format is cell-based. Particulars: 120 h, HPAF-II cells, 5 days culture, CellTiter Glo 2.0 (Example 317, Table 11), read-out: Absolute IC50. As for the experimental part: Cells of the human pancreatic cancer cell line HPAF-II (ATCC Number CRL-1997) were maintenance cultured in a 5% CO2 incubator (37° C.) using RPMI 1640 (FujiFilm-Wako Pure Chemical Industries) containing 10% fetal bovine serum (FBS: SIGMA 173012) and penicillin/streptomycin (FujiFilm-Wako Pure Chemical Industries) (hereunder referred to simply as “culture medium”). After adding 25 μL of HPAF-II cell suspension prepared to 3.2×10^4 cells/mL using culture medium into each well of a 384-well plate (Greiner 781091), the cells were cultured overnight in a 5% CO2 incubator (37° C.). On the following day, 25 μL of the test substance diluted with culture medium was added to each well, and culturing was continued for 5 days in a 5% CO2 incubator (37° C.). Next, 25 μL of CellTiter Glo™ 2.0 (Promega) was added to each well, and the plate contents were mixed for 5 minutes using a plate mixer. The plate was stationed for 10 minutes at room temperature while shielded from light, and then the luminous intensity was measured with an ENVISION′ (Perkin-Elmer). The luminescence value of the wells with addition of test substance was determined as a relative value, with 100% as the luminescence value of the wells with cells but without addition of the test substance and 0% as the luminescence value of the wells without cells. […]

In experiment [5] the target is HiBiT tagged BRD4-BD1 protein in HEK293/LgBiT/hPGK/HiBiT-BRD4-BD1 cells (Homo sapiens, UniProt O60885). The experiment can be described thus: BET BD1 domain degradation assay. Particulars: concentration for 50% reduction in HiBiT-BRD4-BD1 protein level, 3 hours, read-out: Absolute DC50—3 h (nM) HEK293_HiBiT-BRD4-BD1. The format is cell-based. On the set-up: HiBit-linker-BRD4 BD1(1-209); host or cells: HEK293 (ATCC CRL-1573) stably transduced with LgBiT and HiBiT-BRD4-BD1. The procedure, abridged:
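HEK293 cells stably expressing LgBiT and HiBiT-tagged BRD4 BD1(1-209) were treated with compound for 3 h at 37 °C. HiBiT protein level was read by lytic luminescence relative to untreated cells (100%) and cell-free wells (0%). Absolute DC50 came from a 4-parameter logistic fit.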
In general terms: HiBiT is a short tag that completes a luciferase, so light tracks the accessible tagged protein.

IC50 and DC50 data for ten compounds are collected here from US20240148895A1, “ANTIBODY-DRUG CONJUGATE” (Eisai R&D Management Co., Ltd., priority 2022, published 2024).

SMILES strings stand for the structures.

Regarding `COc1cc(=O)n(C)cc1-c1ccc2nc(N)nc(C(CO)(CC3CC3)c3cccnc3)c2c1` (stereo not drawn) [Example 25, 5-(2-Amino-4-(1-cyclopropyl-3-hydroxy-2-(pyridin-3-yl)propan-2-yl)quinazolin-6-yl)-4-methoxy-1-methylpyridin-2(1H)-one], the IC50 is 130 nM in experiment [1] and 0.057 nM in experiment [2].

As to `C#CC1CCN(c2nc(C(CO)(OC3CC3)c3ccccc3)c3cc(-c4cn(C)c(=O)c5[nH]ccc45)ccc3n2)CC1` (stereo not drawn) [Example 26, 4-(4-(1-Cyclopropoxy-2-hydroxy-1-phenylethyl)-2-(4-ethynylpiperidin-1-yl)quinazolin-6-yl)-6-methyl-1,6-dihydro-7H-pyrrolo[2,3-c]pyridin-7-one], the results for the IC50 in experiment [1] and in experiment [2] were 47 nM and 0.032 nM, respectively.

In the case of `C[C@@H]1CN(CC2CCN(c3nc(C(CN)(OC4CC4)c4ccccc4)c4cc(-c5cn(C)c(=O)c6[nH]ccc56)ccc4n3)CC2)[C@@H](C)CN1` (stereo partly drawn) [Example 28, 4-(4-(2-Amino-1-cyclopropoxy-1-phenylethyl)-2-(4-(((2S,5R)-2,5-dimethylpiperazin-1-yl)methyl)piperidin-1-yl)quinazolin-6-yl)-6-methyl-1,6-dihydro-7H-pyrrolo[2,3-c]pyridin-7-one], the IC50 amounted to 82 nM in experiment [1] and 0.023 nM in experiment [2].

Regarding `C#CCNC1(C)CCN(C2CCN(c3nc(C(CO)(OC4CC4)c4ccccc4)c4cc(-c5cn(C)c(=O)c6[nH]ccc56)ccc4n3)CC2)CC1` (stereo not drawn) [Example 29, 4-(4-(1-Cyclopropoxy-2-hydroxy-1-phenylethyl)-2-(4-methyl-4-(prop-2-yn-1-ylamino)-[1,4′-bipiperidin]-1′-yl)quinazolin-6-yl)-6-methyl-1,6-dihydro-7H-pyrrolo[2,3-c]pyridin-7-one], the IC50 in experiment [1] is 57 nM; in experiment [2] it was 0.041 nM.

For the compound `C#CC1(O)CCN(C2CCN(c3nc(C(CO)(OC4CC4)c4ccccc4)c4cc(-c5cn(C)c(=O)c6[nH]ccc56)ccc4n3)CC2)CC1` (stereo not drawn) [Example 30], the IC50 is 27 nM in experiment [1] and under 0.015 nM in experiment [2].

As to `C[C@@H]1CN(C2CCN(c3nc(C(CN)(OC4CC4)c4ccccc4)c4cc(-c5cn(C)c(=O)c6[nH]ccc56)ccc4n3)CC2)[C@@H](C)CN1` (stereo partly drawn) [Example 31], the IC50 in experiment [1] was found to be 61 nM; in experiment [2] it was 0.037 nM.

Regarding `COc1cc(=O)n(C)cc1-c1ccc2nc(N3CCC(N4CCC(C)(N)CC4)CC3)nc(C(CO)(OC3CC3)c3cccc4ccccc34)c2c1` (stereo not drawn) [Example 33, 5-(2-(4-Amino-4-methyl-[1,4′-bipiperidin]-1′-yl)-4-(1-cyclopropoxy-2-hydroxy-1-(naphthalen-1-yl)ethyl)quinazolin-6-yl)-4-methoxy-1-methylpyridin-2(1H)-one], the values for the IC50 in experiment [1] and in experiment [2] were 440 nM and under 0.015 nM, respectively.

Regarding `Cn1cc(-c2ccc3nc(N4CCC(OC5CCNCC5)CC4)nc(C(CO)(c4ccccc4)c4ccccc4)c3c2)c2ccoc2c1=O` [Example 35, 4-(4-(2-Hydroxy-1,1-diphenylethyl)-2-(4-(piperidin-4-yloxy)piperidin-1-yl)quinazolin-6-yl)-6-methylfuro[2,3-c]pyridine-7(6H)-one], the IC50 in experiment [1] is 87 nM; in experiment [2], 0.038 nM.

Turning to `Cc1cc(-c2ccc3nc(N)nc([C@@](CO)(OC4CC4)c4ccccc4)c3c2)cn(C)c1=O` [Example 36, (S)-5-(2-Amino-4-(1-cyclopropoxy-2-hydroxy-1-phenylethyl)quinazolin-6-yl)-1,3-dimethylpyridin-2(1H)-one], the results for the IC50 in experiment [1] and in experiment [2] were 25 nM and 0.035 nM, respectively.

On to `COc1ccc(C#CCNC2(C)CCN(C3CCN(c4nc([C@@](CO)(OC5CC5)c5ccccc5)c5cc(-c6cn(C)c(=O)c7[nH]ccc67)ccc5n4)CC3)CC2)cc1N1CCC(=O)N(CNC(=O)[C@H](CC(N)=O)NC(C)=O)C1=O` [Example 135, (S)-2-Acetamide-N1-((3-(5-(3-((1′-(4-((S)-1-cyclopropoxy-2-hydroxy-1-phenylethyl)-6-(6-methyl-7-oxo-6,7-dihydro-1H-pyrrolo[2,3-c]pyridin-4-yl)quinazolin-2-yl)-4-methyl-[1,4′-bipiperidin]-4-yl)amino)prop-1-yn-1-yl)-2-methoxyphenyl)-2,6-dioxotetrahydropyrimidine-1(2H)-yl)methyl)succinamide], for which the IC50 in experiment [3] was 2.4 nM; in experiment [4], 2.9 nM. Also, in experiment [5], the DC50 was over 100 nM.

Broadly, the DC50 is the concentration at which degradation of the target reaches its halfway point.
